Laboratory results taken from patent EP0815110B1.
Like-named read-outs stand apart in the source and are kept apart here.

What was measured:
Assay type in all cases: biochemical, Ratte
[1] = target: NADH-Ubichinon-1-Reduktase (Rattus norvegicus, UniProt A6K8N6+P03889+Q641Y2); assay: NADH-ubiquinone-1 reductase (complex I) test, spectrophotometric at 340 nm
[2] = target: T1, Succinat-Dehydrogenase (Rattus norvegicus, UniProt P21913+Q641Z9+Q6PCT8+Q920L2); assay: Succinate dehydrogenase (complex II) activity; settings: Rattenhirn-Homogenate
T1 construct: Hemmung des Komplexes I bzw; II der mitochondrialen Atmungskette in Rattenhirn-Homogenaten; from tissue; host or cells: rat brain homogenate

[3] = target: NADH-Oxidase (Rattus norvegicus, UniProt A6K8N6+P03889+Q641Y2); assay: NADH oxidase activity of complex I of the mitochondrial respiratory chain
[4] = target: NADH-Cytochrom-c-Reduktase (Rattus norvegicus, UniProt A6K8N6+P03889+Q641Y2); assay: NADH-cytochrome-c reductase test (complex I/III), spectrophotometric at 550 nm
Protocol: (§1) Die Isolierung von SMP's aus Rattenleber erfolgte nach (Ragan et al., 1987; Rickwood et al., 1987). • 8.1 Hemmung des Komplexes I der Atmungskette in SMP's durch N-Me-TaClo Komplex I (NADH-Dehydrogenase) der mitochondrialen Atmungskette katalysiert im ersten Schritt eine NADH-Oxidation. Die dabei freiwerdenden Elektronen werden in einem zweiten Schritt auf Coenzym Q bzw. Ubichinon übertragen. Ein typischer Testansatz (modifiziert nach Ragan et al., 1987) enthält dabei 20 mM K-Phosphat Puffer, pH 8.0, 0.2 mM NADH, 1 mM KCN, SMP (ca. 0.3 mg Protein/ml) und +/- 250 µM N-Me-TaClo (25 mM methanolische Stammlösung). Der Start der Reaktion erfolgt durch Zugabe von 50 µM Ubichinon-1. Die Messung der Reaktion erfolgt spektralphotometrisch bei einer Wellenlänge von 340 nm während der linearen Phase. Bei Zugabe von N-Me-TaClo erfolgt eine 100proz. Hemmung der Ubichinon-Reduktion (s.a. Tabelle 1). • 8.2 Hemmung der elektronenübertragenden Reaktionen auf Coenzym Q: NADH-Cytochrom-c-Reduktase und Succinat-Cytochrom-c-Reduktase Coenzym Q wird sowohl durch freiwerdende Elektronen bei der Komplex-I-katalysierten NADH-Oxidation, als auch bei der Komplex-II (Succinat-Coenzym-Q-Reduktase) -katalysierten Reaktion reduziert. Messungen dieser Reaktionswege mit anschließendem Elektronenfluß über den Komplex III bis zur Cytochrom-c-Reduktion lassen sich mittels folgender Tests untersuchen und durch die hier vorgestellten halogenierten β-Carbolinderivate (im folgenden am Beispiel von N-Me-TaClo) hemmen: • NADH-Cytochrom-c-Reduktase-Test (modifiziert nach Sottocasa et al., 1967) Ein typischer Testansatz enthält 25 mM K-Phosphat-Puffer, pH 7.5, 0.2 mM NADH, 0.1 mM Cytochrom-c, 0.5 mM KCN und +/- 250 µM N-Me-TaClo (25 mM methanolische Stammlösung). Die Messung der Reaktion erfolgt spektralphotometrisch bei einer Wellenlänge von 550 nm während der linearen Phase. Bei Zugabe von N-Me-Taclo erfolgt eine 100proz. Hemmung der Reaktion (s.a. Tabelle 1). • - Succinat-Cytochrom-c-Reduktase-Test (modifiziert nach Sottocasa et al., 1967) Ein typischer Testansatz enthält 55 mM K-Phosphat-Puffer, pH 7.5, 3 mM Na-Succinat, 0.1 mM Cytochrom c, +/- 250 µM N-Me-TaClo (25 mM methanolische Stammlösung) und 0.5 mM KCN. Gestartet wird die Reaktion mit SMP (ca. 0.3 mg Protein/ml). Die Messung der Reaktion erfolgt spektralphotometrisch bei einer Wellenlänge von 550 nm während der linearen Phase. Bei Zugabe von N-Me-TaClo erfolgt eine 100proz. Hemmung der Reaktion (s. auch Tabelle 1). • - Einsatz der halogenierten β-Carboline als Hemmstoffe der NADH- bzw. Succinat-gekoppelten Oxidation; Polarographische Messungen der Enzymaktivitäten an SMP's ("submitochondrial particles") Bei der polarographischen Messung wird die Aktivität der Atmungskette in ihrer Gesamtheit ausgehend von der NADH-Oxidation (Komplex I) bzw. Succinat-Oxidation (Komplex II) bis zur O2-Reduktion (Komplex IV) bestimmt. Als Maß der Aktivität wird der O2-Verbrauch bestimmt. Der Test wird unter Verwendung einer Clark-Sauerstoffelektrode (Rank Brothers, England) bei 30°C in 2 ml Puffer (50 mM K-Phosphat, pH 7.4, 250 mM Saccharose) und 0.15 mg SMP-Protein/ml durchgeführt. Nach 5 minütiger Vorinkubation ± Inhibitor wird die Messung mit NADH (Endkonzentration 0.28 mM) bzw. Succinat (Endkonzentration 20 mM) gestartet. Bei der Succinat-gekoppelten Oxidation werden die SMP's vorher nach Krueger et al., (1993) mit Malonat aktiviert.

[5] = test system: Succinat-Cytochrom-c-Reduktase; assay: Succinate-cytochrome-c reductase test (complex II/III), spectrophotometric at 550 nm
Protocol: as §1, with “Succinat-Oxidation (Komplex II) bis zur O2-Reduktion (Komplex IV) bestimmt. Als Maß der Aktivität wird der O2-Verbrauch bestimmt. Der Test wird unter Verwendung einer Clark-Sauerstoffelektrode (Rank Brothers, England) bei 30°C in 2 ml Puffer (50 mM K-Phosphat, pH 7.4, 250 mM Saccharose) und 0.15 mg SMP-Protein/ml durchgeführt. Nach 5 minütiger Vorinkubation ± Inhibitor wird die Messung mit NADH (Endkonzentration 0.28 mM) bzw. Succinat (Endkonzentration 20 mM) gestartet. Bei der Succinat-gekoppelten Oxidation werden die SMP's vorher nach Krueger et al., (1993) mit Malonat aktiviert.” left out

[6] = target: Cytochrom c Oxidase (Rattus norvegicus, UniProt P00406+P05503); assay: Cytochrome c oxidase (complex IV) activity; settings: 500 µM TaClo, Rattenhirn-Homogenate
[7] = bei 500 µmol, Rattenhirn-Homogenate, read-out: Komplex-I-Hemmung Inhibierungsrate (in %) bei gegebener Konzentration (in µmol)
[8] = bei 500 µmol, read-out: Komplex-II-Hemmung Inhibierungsrate (in %) bei gegebener Konzentration (in µmol)
[9] = bei 250 µmol, read-out: Komplex-II-Hemmung Inhibierungsrate (in %) bei gegebener Konzentration (in µmol)
[10] = read-out: Inhibierungsrate durch TaClo

Sequence of NADH-Ubichinon-1-Reduktase (P03889 whole entry): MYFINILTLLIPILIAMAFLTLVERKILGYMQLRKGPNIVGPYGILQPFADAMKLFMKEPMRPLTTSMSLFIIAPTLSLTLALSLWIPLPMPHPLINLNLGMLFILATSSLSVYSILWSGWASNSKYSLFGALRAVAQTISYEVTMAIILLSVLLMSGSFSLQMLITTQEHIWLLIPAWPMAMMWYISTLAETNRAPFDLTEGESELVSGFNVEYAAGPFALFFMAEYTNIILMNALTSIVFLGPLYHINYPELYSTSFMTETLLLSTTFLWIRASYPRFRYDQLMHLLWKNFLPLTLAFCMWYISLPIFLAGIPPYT
Sequence of NADH-Ubichinon-1-Reduktase (Q641Y2 34-463): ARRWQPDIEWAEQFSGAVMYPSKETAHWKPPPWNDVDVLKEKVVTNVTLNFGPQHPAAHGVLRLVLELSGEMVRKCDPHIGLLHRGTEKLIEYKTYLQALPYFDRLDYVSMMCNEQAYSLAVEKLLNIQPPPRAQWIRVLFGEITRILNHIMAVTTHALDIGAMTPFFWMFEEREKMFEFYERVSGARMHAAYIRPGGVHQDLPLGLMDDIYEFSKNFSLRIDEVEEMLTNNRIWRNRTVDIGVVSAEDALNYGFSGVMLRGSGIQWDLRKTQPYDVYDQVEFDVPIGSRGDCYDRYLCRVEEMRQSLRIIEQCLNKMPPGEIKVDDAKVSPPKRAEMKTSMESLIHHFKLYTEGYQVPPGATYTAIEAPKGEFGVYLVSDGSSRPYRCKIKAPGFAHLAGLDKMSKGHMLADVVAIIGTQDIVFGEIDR
Sequence of NADH-Ubichinon-1-Reduktase (A6K8N6 entry or part of it): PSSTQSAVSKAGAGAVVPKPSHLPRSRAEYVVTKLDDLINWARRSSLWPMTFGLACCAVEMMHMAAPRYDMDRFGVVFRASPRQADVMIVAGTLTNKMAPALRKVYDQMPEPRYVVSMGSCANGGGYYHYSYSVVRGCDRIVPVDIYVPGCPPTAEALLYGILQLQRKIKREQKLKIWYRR
Sequence of NADH-Cytochrom-c-Reduktase (Q641Y2 34-463): as the sequence (Q641Y2 34-463) above
Sequence of NADH-Cytochrom-c-Reduktase (P03889 whole entry): as the sequence (P03889 whole entry) above
Sequence of NADH-Cytochrom-c-Reduktase (A6K8N6 entry or part of it): as the sequence (A6K8N6 entry or part of it) above
T1 sequence (Q920L2 35-656): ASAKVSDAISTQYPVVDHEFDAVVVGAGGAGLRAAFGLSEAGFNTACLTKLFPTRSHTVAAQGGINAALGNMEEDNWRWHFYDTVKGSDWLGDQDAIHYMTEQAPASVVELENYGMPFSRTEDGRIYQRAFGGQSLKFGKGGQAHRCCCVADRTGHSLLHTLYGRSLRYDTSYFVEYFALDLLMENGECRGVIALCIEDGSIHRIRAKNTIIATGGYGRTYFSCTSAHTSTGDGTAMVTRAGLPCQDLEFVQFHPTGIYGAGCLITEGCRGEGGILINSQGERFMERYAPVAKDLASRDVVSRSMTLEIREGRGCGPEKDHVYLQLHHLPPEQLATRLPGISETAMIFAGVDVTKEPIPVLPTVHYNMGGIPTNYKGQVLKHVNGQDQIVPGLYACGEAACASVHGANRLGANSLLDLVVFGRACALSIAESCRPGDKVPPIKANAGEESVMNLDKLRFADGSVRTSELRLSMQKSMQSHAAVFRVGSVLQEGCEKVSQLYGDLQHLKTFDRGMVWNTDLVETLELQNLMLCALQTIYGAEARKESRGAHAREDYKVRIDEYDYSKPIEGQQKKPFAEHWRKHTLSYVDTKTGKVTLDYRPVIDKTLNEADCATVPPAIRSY
T1 sequence (P21913 31-282): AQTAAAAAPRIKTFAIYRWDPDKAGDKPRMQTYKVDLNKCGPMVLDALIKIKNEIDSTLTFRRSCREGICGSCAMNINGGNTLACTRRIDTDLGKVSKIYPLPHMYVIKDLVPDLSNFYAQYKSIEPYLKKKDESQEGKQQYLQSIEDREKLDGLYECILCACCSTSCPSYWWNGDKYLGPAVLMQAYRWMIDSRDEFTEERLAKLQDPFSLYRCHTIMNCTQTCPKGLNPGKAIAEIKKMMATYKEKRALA
T1 sequence (Q641Z9 1-169): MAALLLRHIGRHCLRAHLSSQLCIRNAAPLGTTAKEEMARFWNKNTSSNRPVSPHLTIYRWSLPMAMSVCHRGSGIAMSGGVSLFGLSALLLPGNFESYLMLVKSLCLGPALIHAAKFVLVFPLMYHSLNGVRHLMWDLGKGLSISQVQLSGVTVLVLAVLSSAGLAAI
T1 sequence (Q6PCT8 57-159): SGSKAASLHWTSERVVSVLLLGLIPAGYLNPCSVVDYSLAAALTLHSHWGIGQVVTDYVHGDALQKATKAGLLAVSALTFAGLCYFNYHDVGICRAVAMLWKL

## CC(=O)N1CCc2c([nH]c3ccccc23)C1C(Cl)(Cl)Cl (racemic) [N-Acetyl-TaClo]
[1]; [7]
  inhibition at 500 µM: 20%

## C=CCN1CCc2c([nH]c3ccccc23)C1C(Cl)(Cl)Cl (racemic) [N-Allyl-TaClo]
[2]; [8]
  inhibition at 500 µM: ≥ 100%

## ClC(Cl)(Cl)C1c2[nH]c3ccccc3c2CCN1Cc1ccccc1 (racemic) [N-Bzl-TaClo]
[2]; [9]
  inhibition at 250 µM: 55%

## CCN1CCc2c([nH]c3ccccc23)C1C(Cl)(Cl)Cl (racemic) [N-Ethyl-TaClo]
[2]; [8]
  inhibition at 500 µM: 75%

## O=CN1CCc2c([nH]c3ccccc23)C1C(Br)(Br)Br (racemic) [N-Formyl-TaBro]
[1]; [7]
  inhibition at 500 µM: 83%

## CN1CCc2c([nH]c3ccccc23)C1C(Cl)(Cl)Cl (racemic) [N-Me-TaClo]
[3]; NADH-Oxidase, 250 µM, Rattenhirn-Homogenate, read-out: Inhibierung bei 250 µM N-Me-TaClo
  inhibition at 250 µM: 0%
[1]; 250 µM N-Me-TaClo, SMP's aus Rattenleber, read-out: Hemmung der Ubichinon-Reduktion
  inhibition at 250 µM: 100%
[1]; NADH-Ubichinon-1-Reduktase, 250 µM, Rattenhirn-Homogenate, read-out: Inhibierung bei 250 µM N-Me-TaClo
  inhibition at 250 µM: 100%
[4]; 250 µM N-Me-TaClo, SMP's aus Rattenleber, read-out: Hemmung der Reaktion (NADH-Cytochrom-c-Reduktase-Test)
  inhibition at 250 µM: 100%
[4]; NADH-Cytochrom-c-Reduktase, 250 µM, Rattenhirn-Homogenate, read-out: Inhibierung bei 250 µM N-Me-TaClo
  inhibition at 250 µM: 70%
[5]; 250 µM N-Me-TaClo, SMP's aus Rattenleber
  Hemmung der Reaktion (Succinat-Cytochrom-c-Reduktase-Test): 100 proz.
[5]; Succinat-Cytochrom-c-Reduktase, 250 µM, Rattenhirn-Homogenate
  Inhibierung bei 250 µM N-Me-TaClo: 80%
[2]; Succinat-Dehydrogenase, 250 µM, read-out: Inhibierung bei 250 µM N-Me-TaClo
  inhibition at 250 µM: 100%
[2]; [9]
  inhibition at 250 µM: ≥ 100%

## O=C(CCl)N1CCc2c([nH]c3ccccc23)C1C(Cl)(Cl)Cl (racemic) [N-Monochloracetyl-TaClo]
[1]; [7]
  inhibition at 500 µM: 95%

## O=C(N1CCc2c([nH]c3ccccc23)C1C(Cl)(Cl)Cl)C(Cl)(Cl)Cl (racemic) [N-Trichloracetyl-TaClo]
[1]; [7]
  inhibition at 500 µM: 90%

## ClC(Cl)(Cl)C1NCCc2c1[nH]c1ccccc21 (racemic) [TaClo, 1-Trichlormethyl-1,2,3,4-tetrahydro-β-carbolin]
[3]; NADH-Oxidase, 500 µM TaClo, Rattenhirn-Homogenate, Kontrolle 141.0
  Enzymaktivität (nmol/min/mg Protein): 138.0 nmol/min/mg Protein
[3]; [10]
  inhibition at 500 µM: 0%
[3]; result in words, s. Tabelle 2
  Einfluß auf die NADH-Oxidation: beeinflußt jedoch nicht die NADH-Oxidation
[1]; NADH CoQ1 Reduktase, 500 µM TaClo, Rattenhirn-Homogenate, Kontrolle 10.9
  Enzymaktivität (nmol/min/mg Protein): 1.6 nmol/min/mg Protein
[1]; [10]
  inhibition at 500 µM: 85%
[4]; NADH Cyt c Reduktase, 500 µM TaClo, Rattenhirn-Homogenate, Kontrolle 24.6
  Enzymaktivität (nmol/min/mg Protein): 14.7 nmol/min/mg Protein
[4]; [10]
  inhibition at 500 µM: 40%
[5]; Succinat Cyt c Reduktase, 500 µM TaClo, Rattenhirn-Homogenate
  Inhibierungsrate durch TaClo: 22%
[5]; Succinat Cyt c Reduktase, 500 µM TaClo, Rattenhirn-Homogenate, Kontrolle 11.9
  Enzymaktivität (nmol/min/mg Protein): 9.2 nmol/min/mg Protein
[2]; Succinat Dehydrogenase, 500 µM TaClo, Kontrolle 29.6
  Enzymaktivität (nmol/min/mg Protein): 30.1 nmol/min/mg Protein
[2]; Succinat Dehydrogenase, 500 µM TaClo, read-out: Inhibierungsrate durch TaClo
  inhibition at 500 µM: 0%
[2]; [8]
  inhibition at 500 µM: 30%
[6]; Kontrolle 45.8
  Enzymaktivität (nmol/min/mg Protein): 38.9 nmol/min/mg Protein
[6]; [10]
  inhibition at 500 µM: 20%

## COC(=O)[C@@H]1Cc2c([nH]c3ccccc23)C(C(Cl)(Cl)Cl)N1 (stereo partly shown) [3-COOMe-TaClo]
[2]; [8]
  inhibition at 500 µM: 75%

## FC(F)(F)C1=NCCc2c1[nH]c1ccccc21 [DDH-TaFlu, 1-Trifluormethyl-3,4-didehydro-β-carbolin]
[2]; [9]
  inhibition at 250 µM: 20%

## ClC(Cl)=C1NCCc2c1[nH]c1ccccc21 [Dichlormethylen-TaClo]
[2]; [9]
  inhibition at 250 µM: 40%

## COC(=O)C1Cc2c([nH]c3ccccc23)C(C(Cl)(Cl)Cl)N1Cc1ccccc1 (stereo not shown) [N-Bzl-3-COOMe-TaClo]
[2]; [8]
  inhibition at 500 µM: 60%

## O=CN1CCc2c([nH]c3ccccc23)C1=C(Br)Br [N-Formyl-dibrommethylen-TaBro]
[1]; [7]
  inhibition at 500 µM: ≥ 100%

## C=C(C)[C@H]1Cc2c(ccc3c2O[C@@H]2COc4cc(OC)c(OC)cc4[C@@H]2C3=O)O1 [Rotenon, reference compound]
[1]
  Enzymaktivität (nmol/min/mg Protein): 4.2 nmol/min/mg Protein
[4]
  Enzymaktivität (nmol/min/mg Protein): 5.7 nmol/min/mg Protein
